How the values were obtained:
serum C-peptide = assay: Serum C-peptide levels in NOD mice (mouse C-peptide ELISA); type: in vivo; details: sublingual 87 μg once per day up to 30 weeks of age, compared to untreated control NOD mice
Experimental: Serum C-peptide assay. The mouse C-peptide ELISA (ALPCO), which quantifies C-peptide protein products of mouse I and mouse II proinsulin genes, is used. Briefly, serum is collected by inserting a needle into the submandibular vein and collecting ˜0.2 mL of blood. The blood is centrifuged for 30 minutes at 17,000 rpm in a refrigerated centrifuge, and serum is collected and stored −80° C.
Five-week old female NOD mice are randomly assigned to three groups as described in Example 1: (1) control group (oil only); (2) insulin-related peptide treatment (Humulin®) started at six weeks of age; or (3) insulin-related peptide treatment (Humulin®) started at ten weeks of age. Mice in the treatment groups (2) and (3) are sublingually administered 87 μg of Humulin® once per day up to 30 weeks of age. Baseline C-peptide measurements are taken from serum drawn at week 6. Thereafter, C-peptide measurements are taken from serum drawn 1 time per 2 weeks beginning at week 20 up to 30 weeks of age.

[1] = system: non-obese diabetic (NOD) mice; assay: Onset of hyperglycemia / Type 1 diabetes in NOD mice with sublingual treatment; type: in vivo, mouse; details: for Median Survival (time to Type 1 diabetes onset): female NOD mice, sublingual 87 μg once per day, diabetic = three consecutive blood glucose readings above 300 mg/dL, control 21 weeks; for Gehan-Breslow-Wilcoxon test: Are the survival curves significantly different? / Log-rank (Mantel-Cox) test: Are the survival curves significantly different?: vs control
Experimental: Sublingual formulation. A commercial high dose Humulin® solution (Humulin® R U-500) containing 500 units of insulin per mL is mixed with an additional equal volume (1:1 (vol:vol)) 100% glycerin. Each dose contains 10 μL of the Humulin®-glycerin solution, which contains 2.5 units (approximately 87 micrograms) of insulin in a solution having a final concentration of 52 vol. % glycerin.
NOD mice. Non-obese diabetic (NOD) mice, as described by Makino (Adv. Immunol. 51:285-322 (1992)), are used in the studies described herein. NOD mice provide an animal model for the spontaneous development of Type 1 diabetes. NOD mice develop insulitis as a result of leukocyte infiltration into the pancreatic islet, which in turn leads to the destruction of pancreatic islets and a Type 1 diabetic phenotype.
Five-week old female NOD mice were randomly assigned to three groups: (1) control group (1:1 glycerin/phosphate buffered saline (PBS)); (2) insulin-related peptide treatment (Humulin®) started at six weeks of age; or (3) insulin-related peptide treatment (Humulin®) started at ten weeks of age. Mice in the treatment groups (2) and (3) were sublingually administered 87 μg of Humulin® (10 μL of solution) once per day up to 30 weeks of age. Blood glucose measurements were taken once per week up to 20 weeks of age, and then twice per week thereafter. Mice were classified as diabetic after three consecutive blood glucose readings above 300 mg/dL (hyperglycemic).

[2] = system: islet cell autoantibody levels; assay: Autoantibody titer in NOD mice (ELISA); type: in vivo, mouse; details: sublingual 87 μg once per day up to 30 weeks of age, compared to untreated controls
Description: Autoantibody titer assay. Commercially available ELISA assays are employed for detecting the presence of anti-insulin antibodies in serum samples collected from subjects.
Five-week old female NOD mice are randomly assigned to three groups as described in Example 1: (1) control group (oil only); (2) insulin-related peptide treatment (Humulin®) started at six weeks of age; or (3) insulin-related peptide treatment (Humulin®) started at ten weeks of age. Mice in the treatment groups (2) and (3) are sublingually administered 87 μg of humulin once per day up to 30 weeks of age. The subjects are assessed for baseline levels of autoantibodies at week 6. Thereafter, autoantibody titer measurements are taken once every other week beginning at week 15 up to 30 weeks of age.

[3] = FIG. 1A, treatment group 2, sublingual, started at six weeks of age, compared to control group
[4] = FIG. 1A, treatment started at 6 weeks of age
[5] = FIG. 1B, treatment started at 10 weeks of age

## Humulin: commercial recombinant human insulin solution (Humulin R U-500, 500 units/mL) mixed 1:1 with 100% glycerin for sublingual dosing
Serum C-peptide
  serum C-peptide levels: maintenance or enhanced serum C-peptide levels
[1]; FIG. 1A, started at 6 weeks of age up to 30 weeks
  Median Survival (time to Type 1 diabetes onset): 27 weeks
[1]; [3]
  incidence (% T1D Onset) of Type 1 diabetes: significantly reduced
  onset time (weeks) of Type 1 diabetes: significantly reduced
[1]; [4]
  Ratio of median survival (control vs Humulin): 0.778
  Reciprocal of ratio of median survival: 1.29
  Gehan-Breslow-Wilcoxon test: Are the survival curves significantly different?: Yes
  Log-rank (Mantel-Cox) test: Are the survival curves significantly different?: Yes
[1]; FIG. 1B, started at 10 weeks of age up to 30 weeks
  Median Survival (time to Type 1 diabetes onset): 24 weeks
[1]; [5]
  Ratio of median survival (control vs Humulin): 0.8750
  Reciprocal of ratio of median survival: 1.14
  Gehan-Breslow-Wilcoxon test: Are the survival curves significantly different?: No
  Log-rank (Mantel-Cox) test: Are the survival curves significantly different?: No
[2]
  antigenic response (e.g., islet cell autoantibody levels): attenuated antigenic response
